Test results as given in patent US20100317621A1, “BETA-LACTAMASE INHIBITORS” (priority 2007, published 2010).

Legend:
[1] = molecular target: T1, SHV-5 β-lactamase (Klebsiella pneumoniae, UniProt P0A3M1); assay: biochemical; type: biochemical, Escherichia coli; conditions: crude enzyme extract, 10 min preincubation at 37° C., nitrocefin 100 μM, PBS pH 7.0; read-out: SHV-5 IC50 Range
T1 construct: The β-lactamases were extracted by four cycles of freezing and thawing followed by centrifugation; endogenous in cells; host or cells: Escherichia coli cells containing SHV-5 (crude freeze-thaw extract)
T1 sequence (P0A3M1 22-286): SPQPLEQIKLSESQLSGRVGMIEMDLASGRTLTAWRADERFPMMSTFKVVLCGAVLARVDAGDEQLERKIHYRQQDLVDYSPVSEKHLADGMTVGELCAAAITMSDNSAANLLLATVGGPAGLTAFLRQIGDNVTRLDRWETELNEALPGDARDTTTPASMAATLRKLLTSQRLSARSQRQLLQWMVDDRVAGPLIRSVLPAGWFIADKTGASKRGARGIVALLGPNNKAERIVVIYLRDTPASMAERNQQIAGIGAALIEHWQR
Method: (§1) Isolation of β-lactamases. Crude β-lactamase extracts were prepared from 20 ml overnight cultures with shaking. Escherichia coli cells containing SHV-5 or CTXM-15 and Enterobacter cloacae cells containing P99 were further diluted 10-fold and grown to mid-log phase (OD at 600 nm, 0.5-0.8) in Mueller-Hinton II (MH-II) broth at 37° C. The cells were pelleted at 5000 g, washed and resuspended in 2 mL PBS pH 7.0. The β-lactamases were extracted by four cycles of freezing and thawing followed by centrifugation. β-lactamase activity in the extracts was measured with the chromogenic cephalosporin nitrocefin. The amount of protein in each β-lactamase preparation was determined by the bicinchoninic acid (BCA) assay.
(§2) β-lactamase Inhibition. To determine the level of inhibition of β-lactamase enzymes, compounds were diluted in PBS at pH 7.0 to yield concentrations between 100 and 0.005 μM in microtiter plates. An equal volume of diluted enzyme stock was added, and the plates were incubated at 37° C. for 10 min. Nitrocefin solution was then dispensed as substrate into each well at a final concentration of 100 μM, and the plates were immediately read with the kinetic program at 486 nm for 10 min on the SPECTRAMAX® Plus^384 (high-throughput microplate spectrophotometer; Molecular Devices Corp., Sunnyvale, Calif.). Maximum rates of metabolism were then compared to those in control wells (without inhibitors), and percentages of enzyme inhibition were calculated for each concentration of inhibitor. The concentration of inhibitor needed to reduce the initial rate of hydrolysis of substrate by 50% (IC50) was calculated as the residual activity of β-lactamase at 486 nm using the SoftMax Pro 5.0 software (Molecular Devices Corp.).

[2] = molecular target: T2, CTXM-15 β-lactamase (Escherichia coli, UniProt Q9EXV5); assay: biochemical; type: biochemical; conditions: crude enzyme extract, 10 min preincubation at 37° C., nitrocefin 100 μM, PBS pH 7.0; read-out: CTXM-15 IC50 Range
T2 construct: The β-lactamases were extracted by four cycles of freezing and thawing followed by centrifugation; endogenous in cells; host or cells: Escherichia coli cells containing CTXM-15 (crude freeze-thaw extract)
T2 sequence (Q9EXV5 29-291): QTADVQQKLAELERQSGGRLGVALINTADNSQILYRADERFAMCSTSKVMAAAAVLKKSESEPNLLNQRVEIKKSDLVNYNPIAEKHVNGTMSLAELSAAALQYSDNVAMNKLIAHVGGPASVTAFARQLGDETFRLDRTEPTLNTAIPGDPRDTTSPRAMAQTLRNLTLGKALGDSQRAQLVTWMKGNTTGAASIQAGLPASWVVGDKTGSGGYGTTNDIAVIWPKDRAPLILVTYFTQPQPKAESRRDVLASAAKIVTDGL
Method: as §1, §2

[3] = molecular target: T3, P99 AmpC β-lactamase (Enterobacter cloacae, UniProt P05364); assay: biochemical; type: biochemical; conditions: crude enzyme extract, 10 min preincubation at 37° C., nitrocefin 100 μM, PBS pH 7.0; read-out: P99 AmpC IC50 Range
T3 construct: The β-lactamases were extracted by four cycles of freezing and thawing followed by centrifugation; endogenous in cells; host or cells: Enterobacter cloacae cells containing P99 (crude freeze-thaw extract)
T3 sequence (P05364 21-381): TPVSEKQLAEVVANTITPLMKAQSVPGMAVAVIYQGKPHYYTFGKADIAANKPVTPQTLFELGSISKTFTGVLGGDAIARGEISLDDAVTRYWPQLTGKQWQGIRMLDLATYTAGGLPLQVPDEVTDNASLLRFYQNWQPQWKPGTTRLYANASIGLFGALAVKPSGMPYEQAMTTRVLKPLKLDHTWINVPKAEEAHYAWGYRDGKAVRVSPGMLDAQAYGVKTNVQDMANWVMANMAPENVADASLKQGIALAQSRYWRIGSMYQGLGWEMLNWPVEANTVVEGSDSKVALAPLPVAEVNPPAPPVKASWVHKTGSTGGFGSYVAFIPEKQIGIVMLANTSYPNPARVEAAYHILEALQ
Method: as §1, §2

[4] = tested on: E. coli expressing the Class A ESBL SHV-5; type: cell-based; conditions: in the presence of fixed 8 μg/mL ceftazidime; CAMHB, 16-20 hours at 37° C.
Source text: (§3) To determine the ability of test compounds to potentiate the inhibition of the growth of bacterial strains producing beta-lactamase enzymes, classic cell based screening assays were employed. Four bacteria strains producing beta-lactamase enzymes were used: E. coli expressing the Class A Extended Spectrum Beta-Lactamase (ESBL) CTX-M-15, E. coli expressing the Class A ESBL SHV-5, E. cloacae expressing the Class C P99+, and K. pneumoniae expressing the Class A carbapenemase KPC-2. In order to evaluate the ability of test compounds to inhibit beta-lactamase activity, Applicants used a modification of the broth microdilution assay. The assay was conducted in Cation Adjusted Mueller Hinton Broth (CAMHB, BD #212322, BD Diagnostic Systems, Sparks, Md.). Bacteria strains were grown for 3-5 hours in CAMBH broth. All four strains were grown in presence of 50 μg/mL ampicillin to ensure resistance is maintained. In the meantime, test compounds were diluted in DMSO to a 0.1 mg/mL stock. The compounds were added to a microtiter plate and were diluted in 2-fold serial dilutions in CAMHB in a final concentration range of 32 μg/mL to 0.25 μg/mL. An overlay of CAMHB containing a cephalosporin was added to the compounds at a final static concentration of 8 μg/mL. […] Each of these compound plates are made in quadruplicate, one for each bacteria strain. In addition to the titration of test compounds the MICs of a panel of cephalosporins is also tested to ensure the strains are behaving consistently from test to test. Once the test compound and cephalosporin are added the plates can be inoculated. Inocula are conducted according to CLSI broth microdilution method. After inoculation the plates are incubated for 16-20 hours at 37° C. then the Minimal Inhibitory Concentration (MIC) of the test compound is determined visually.
(§4) Using the methodology described above, examples of the current invention were evaluated for their ability to inhibit the growth of β-lactamase producing bacteria in the presence of a β-lactam antibiotic.

[5] = tested on: E. coli expressing the Class A ESBL CTX-M-15; type: cell-based; conditions: in the presence of fixed 8 μg/mL cefotaxime; CAMHB, 16-20 hours at 37° C.
Source text: as §3, §4

[6] = tested on: K. pneumoniae expressing the Class A carbapenemase KPC-2; type: cell-based; conditions: in the presence of fixed 8 μg/mL ceftazidime; CAMHB, 16-20 hours at 37° C.
Source text: as §3, §4

[7] = tested on: E. cloacae expressing the Class C P99+; type: cell-based; conditions: in the presence of fixed 8 μg/mL ceftazidime; CAMHB, 16-20 hours at 37° C.
Source text: as §3, §4

SMILES	IC50 [1] [nM]	IC50 [2] [nM]	IC50 [3] [nM]	MIC of example compound, E. coli SHV-5 + 8 μg/mL CAZ [4]	MIC of example compound, E. coli CTXM-15 + 8 μg/mL TAX [5]	MIC of example compound, K. pneumoniae KPC-2 + 8 μg/mL CAZ [6]	MIC of example compound, E. cloacae P99+ + 8 μg/mL CAZ [7]
O=C(Cc1cccs1)N[C@@H](Cc1ccc(F)c(C(=O)O)c1)B(O)O [Example 21, (1R)-1-(2-thiophene-2-yl-acetylamino)-2-(3-carboxy-4-fluorophenyl)ethyl-1-boronic acid]	< 100	< 100	100 to 1000	C (C represents an MIC of <2 μg/mL)	C (C represents an MIC of <2 μg/mL)	B (B represents an MIC between 2 and 32 μg/mL)	B (B represents an MIC between 2 and 32 μg/mL)
O=C(CCC(=O)C1CC1)N[C@@H](Cc1cccc(C(=O)O)c1)B(O)O [Example 36, (1R)-1-(4-Cyclopropyl-4-oxo-butyrylamino)-2-(3-carboxyphenyl)ethyl-1-boronic acid]	> 1000	–	> 1000	B (B represents an MIC between 2 and 32 μg/mL)	B (B represents an MIC between 2 and 32 μg/mL)	–	B (B represents an MIC between 2 and 32 μg/mL)
O=C(CCC(=O)c1cccs1)N[C@@H](Cc1cccc(C(=O)O)c1)B(O)O [Example 12, (1R)-1-(4-Oxo-4-thiophen-2-yl-butyrylamino)-2-(3-carboxyphenyl)ethyl-1-boronic acid]	100 to 1000	100 to 1000	< 100	B (B represents an MIC between 2 and 32 μg/mL)	B (B represents an MIC between 2 and 32 μg/mL)	B (B represents an MIC between 2 and 32 μg/mL)	B (B represents an MIC between 2 and 32 μg/mL)
COc1ccc(CC(=O)N[C@@H](Cc2cccc(C(=O)O)c2)B(O)O)cc1OC [Example 11, (1R)-1-(3,4-Dimethoxyphenylacetylamino)-2-(3-carboxyphenyl)ethyl-1-boronic acid]	< 100	< 100	100 to 1000	B (B represents an MIC between 2 and 32 μg/mL)	B (B represents an MIC between 2 and 32 μg/mL)	A (A represents an MIC>32 μg/mL)	B (B represents an MIC between 2 and 32 μg/mL)
O=C(Cc1ccc(O)cc1)N[C@@H](Cc1cccc(C(=O)O)c1)B(O)O [Example 34, (1R)-1-(4-Hydroxyphenylacetylamino)-2-(3-carboxyphenyl)ethyl-1-boronic acid]	< 100	100 to 1000	< 100	B (B represents an MIC between 2 and 32 μg/mL)	B (B represents an MIC between 2 and 32 μg/mL)	–	B (B represents an MIC between 2 and 32 μg/mL)
O=C(Cc1ccsc1)N[C@@H](Cc1cccc(C(=O)O)c1)B(O)O [Example 29, (1R)-1-(2-thiophene-3-yl-acetylamino)-2-(3-carboxyphenyl)ethyl-1-boronic acid]	< 100	100 to 1000	100 to 1000	8 µg/mL	C (C represents an MIC of <2 μg/mL)	B (B represents an MIC between 2 and 32 μg/mL)	A (A represents an MIC>32 μg/mL)
NCCOc1cccc(CC(=O)N[C@@H](Cc2cccc(C(=O)O)c2)B(O)O)c1 [Example 30, (1R)-1-{2-[3-(2-Amino-ethoxy)-phenyl]-acetylamino}-2-(3-carboxyphenyl)ethyl-1-boronic acid]	100 to 1000	< 100	100 to 1000	B (B represents an MIC between 2 and 32 μg/mL)	B (B represents an MIC between 2 and 32 μg/mL)	B (B represents an MIC between 2 and 32 μg/mL)	B (B represents an MIC between 2 and 32 μg/mL)
COc1cccc(CC(=O)N[C@@H](Cc2cccc(C(=O)O)c2)B(O)O)c1 [Example 2, (1R)-1-(3-Methoxyphenylacetylamino)-2-(3-carboxyphenyl)ethyl-1-boronic acid]	< 100	< 100	100 to 1000	B (B represents an MIC between 2 and 32 μg/mL)	B (B represents an MIC between 2 and 32 μg/mL)	B (B represents an MIC between 2 and 32 μg/mL)	A (A represents an MIC>32 μg/mL)
O=C(Cc1cccc(O)c1)N[C@@H](Cc1cccc(C(=O)O)c1)B(O)O [Example 22, (1R)-1-(3-Hydroxyphenylacetylamino)-2-(3-carboxyphenyl)ethyl-1-boronic acid]	< 100	< 100	100 to 1000	C (C represents an MIC of <2 μg/mL)	B (B represents an MIC between 2 and 32 μg/mL)	B (B represents an MIC between 2 and 32 μg/mL)	B (B represents an MIC between 2 and 32 μg/mL)
O=C(Cc1cccs1)N[C@@H](Cc1cccc(C(=O)O)c1)B(O)O [Example 1, (1R)-1-(2-thiophene-2-yl-acetylamino)-2-(3-carboxyphenyl)ethyl-1-boronic acid]	< 100	< 100	100 to 1000	B (B represents an MIC between 2 and 32 μg/mL)	B (B represents an MIC between 2 and 32 μg/mL)	C (C represents an MIC of <2 μg/mL)	B (B represents an MIC between 2 and 32 μg/mL)
NC(=O)COc1cccc(CC(=O)N[C@@H](Cc2cccc(C(=O)O)c2)B(O)O)c1 [Example 33, (1R)-1-[2-(3-Carbamoylmethoxy-phenyl)-acetylamino}-2-(3-carboxyphenyl)ethyl-1-boronic acid]	< 100	< 100	100 to 1000	B (B represents an MIC between 2 and 32 μg/mL)	B (B represents an MIC between 2 and 32 μg/mL)	–	B (B represents an MIC between 2 and 32 μg/mL)
